Laboratory results from patent US7384931B2, “Constrained compounds as CGRP-receptor antagonists” (Bristol-Myers Squibb Company, priority 2004, dated 2008).

The compounds below were run against CGRP receptor (Homo sapiens, UniProt O60894+Q16602) (assay: CGRP radioligand binding assay ([125I]-CGRP displacement, SK-N-MC homogenate)). Settings: displacement of [125I]-CGRP, room temperature 2 h.
Set-up: endogenous in cells; host or cells: SK-N-MC cells (homogenate/membrane pellet)
Procedure: CGRP Binding Assay. Tissue Culture. SK—N-MC cells were grown at 37° C. in 5% CO2 as a monolayer in medium consisting of MEM with Earle's salts and L-glutamine (Gibco) supplemented with 10% fetal bovine serum (Gibco). Cell Pellets. The cells were rinsed twice with phosphate-buffered saline (155 mM NaCl, 3.3 mM Na2HPO4, 1.1 mM KH2PO4, pH 7.4), and incubated for 5-10 min. at 4° C. in hypotonic lysis buffer consisting of 10 mM Tris (pH 7.4) and 5 mM EDTA. The cells were transferred from plates to polypropylene tubes (16×100 mm) and homogenized using a polytron. Homogenates were centrifuged at 32,000×g for 30 min. The pellets were resuspended in cold hypotonic lysis buffer with 0.1% mammalian protease inhibitor cocktail (Sigma) and assayed for protein concentration. The SK—N-MC homogenate was then aliquoted and stored at −80° C. until needed.
Radioligand Binding Assay. The compounds of invention were solubilized and carried through serial dilutions using 100% DMSO. Aliquots from the compound serial dilutions were further diluted 25 fold into assay buffer (50 mM Tris-Cl pH 7.5, 5 mM MgCl2, 0.005% Triton X-100) and transferred (volume 50 μl) into 96 well assay plates. [^125I]-CGRP (Amersham Biosciences) was diluted to 60 pM in assay buffer and a volume of 50 μl was added to each well. SK—N-MC pellets were thawed, diluted in assay buffer with fresh 0.1% mammalian protease inhibitor cocktail (Sigma), and homogenized again. SK—N-MC homogenate (5 μg/well) was added in a volume of 100 μl. The assay plates were then incubated at room temperature for 2 h. Assays were stopped by addition of excess cold wash buffer (20 mM Tris-Cl pH 7.5, 0.1% BSA) immediately followed by filtration over glass fiber filters (Whatman GF/B) previously soaked in 0.5% PEI. Non-specific binding was defined with 1 μM beta-CGRP. Protein bound radioactivity was determined using a gamma or scintillation counter. The IC50 was defined as the concentration of a compound of invention required to displace 50% of radioligand binding.

CGRP receptor, sequence (Q16602 23-461): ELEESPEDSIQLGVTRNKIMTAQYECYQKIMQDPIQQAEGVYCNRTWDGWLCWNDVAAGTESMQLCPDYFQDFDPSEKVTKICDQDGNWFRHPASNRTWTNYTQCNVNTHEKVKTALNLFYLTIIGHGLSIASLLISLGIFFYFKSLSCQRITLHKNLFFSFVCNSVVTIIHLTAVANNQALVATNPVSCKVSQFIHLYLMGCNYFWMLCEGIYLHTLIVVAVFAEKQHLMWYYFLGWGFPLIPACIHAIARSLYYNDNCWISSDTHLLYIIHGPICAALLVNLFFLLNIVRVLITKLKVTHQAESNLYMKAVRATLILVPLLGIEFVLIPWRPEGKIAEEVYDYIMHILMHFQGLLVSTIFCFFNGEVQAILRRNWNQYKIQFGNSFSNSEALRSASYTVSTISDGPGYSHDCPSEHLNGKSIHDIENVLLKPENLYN
CGRP receptor, sequence (O60894 27-148): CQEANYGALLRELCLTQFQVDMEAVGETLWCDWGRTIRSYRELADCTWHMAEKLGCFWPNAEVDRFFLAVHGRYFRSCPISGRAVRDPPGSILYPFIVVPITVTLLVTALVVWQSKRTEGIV

IC50 [µM]	Structure (SMILES)
0.1 to 1	CN1Cc2c(ccc3[nH]ncc23)C[C@@H](NC(=O)N2CCC(N3Cc4ccccc4NC3=O)CC2)C1=O [Example 2, 4-(2-Oxo-1,4-dihydro-2H-quinazolin-3-yl)-piperidine-1-carboxylic acid (9-methyl-8-oxo-3,6,7,8,9,10-hexahydro-2,3,9-triaza-(R)-cyclohepta[e]inden-7-yl)-amide]
> 1	COc1cc2ccccc2cc1C1CCN(C(=O)C[C@@H]2Cc3cc(Cl)c4[nH]ncc4c3CN(CC(C)(C)C)C2=O)CC1 [Example 73, 1-[[7-(S)-4-choro-9-(2,2-Dimethylpropyl)-3,6,7,8,9,10-hexahydro-8-oxoazepino[3,4-e]indazol-7-yl]acetyl]-4-(3-methoxy-2-naphthalenyl)piperidine]
0.1 to 1	C=C(C)c1cc2c(c3cn[nH]c13)CN(CC(F)(F)F)C(=O)[C@H](CC(=O)N1CCC(c3cc4cccc(F)c4[nH]c3=O)CC1)C2 [Example 109, (S)-7-(2-(4-(8-fluoro-2-oxo-1,2-dihydroquinolin-3-yl)piperidin-1-yl)-2-oxoethyl)-4-(prop-1-en-2-yl)-9-(2,2,2-trifluoroethyl)-6,7,9,10-tetrahydroazepino[3,4-e]indazol-8(3H)-one]
0.0001 to 0.01	CC(C)(C)CN1Cc2c(cc(Br)c3[nH]ncc23)C[C@@H](CC(=O)N2CCC(c3cc4ccccc4[nH]c3=O)CC2)C1=O [Example 94, (S)-4-bromo-9-neopentyl-7-(2-oxo-2-(4-(2-oxo-1,2-dihydroquinolin-3-yl)piperidin-1-yl)ethyl)-6,7,9,10-tetrahydroazepino[3,4-e]indazol-8(3H)-one]
0.0001 to 0.01	O=C(C[C@@H]1Cc2cc(Cl)c3[nH]ncc3c2CN(CC(F)(F)F)C1=O)N1CCC(N2Cc3ccccc3NC2=O)CC1 [Example 75, 1-[[(7S)-4-Chloro-3,6,7,8,9,10-hexahydro-8-oxo-9-(2,2,2-trifluoroethly)azepino[3,4-e]indazol-7-yl]acetyl]-4-(1,4-dihydro-2-oxo-3(2H)-quinazolinyl)-piperidine]
0.01 to 0.1	C=C(C)c1cc2c(c3cn[nH]c13)CN(CC(F)(F)F)C(=O)[C@H](CC(=O)N1CCC(c3cc4ccccc4[nH]c3=O)CC1)C2 [Example 108, (S)-7-(2-oxo-2-(4-(2-oxo-1,2-dihydroquinolin-3-yl)piperidin-1-yl)ethyl)-4-(prop-1-en-2-yl)-9-(2,2,2-trifluoroethyl)-6,7,9,10-tetrahydroazepino[3,4-e]indazol-8(3H)-one]
> 1	O=C1Nc2ccccc2C2(CCN(C(=O)N[C@@H]3Cc4ccc5[nH]ncc5c4CN(CCN4CCOCC4)C3=O)CC2)N1 [Example 8, ′H-Spiro[piperidine-4,4′-quinazolin]-2′(3′H)-one-1-carboxylic acid [9-(2-morpholin-4-yl-ethyl)-8-oxo-3,6,7,8,9,10-hexahydro-2,3,9-triaza-(R)-cyclohepta[e]inden-7-yl]-amide]
0.1 to 1	CN1Cc2cc(O)ccc2CC(NC(=O)N2CCC(N3Cc4ccccc4NC3=O)CC2)C1=O (stereo not drawn) [Example 32, 4-(2-Oxo-1,4-dihydro-2H-quinazolin-3-yl)-piperidine-1-carboxylic acid (8-hydroxy-2-methyl-3-oxo-2,3,4,5-tetrahydro-1H-benzo[c]azepin-4-yl)-amide]
0.0001 to 0.01	CC(C)(C)CN1Cc2c(cc(Cl)c3[nH]ncc23)C[C@@H](CC(=O)N2CCC(c3cc4ccc(Cl)cc4[nH]c3=O)CC2)C1=O [Example 116]
0.01 to 0.1	CC(C)(C)CN1Cc2c(cc(Cl)c3[nH]ncc23)C[C@@H](CC(=O)N2CCC(C3C(=O)c4ccccc4NS3(=O)=O)CC2)C1=O (stereo partly drawn) [Example 76, 1-[[7-(S)-4-choro-9-(2,2-Dimethylpropyl)-3,6,7,8,9,10-hexahydro-8-oxoazepino[3,4-e]indazol-7-yl]acetyl]-4-(3,4-dihydro-2,2-dioxido-4-oxo-1H-2,1-benzothiazin-3-yl)piperidine]
0.0001 to 0.01	Cc1cc2c(c3cn[nH]c13)CN(CC(F)(F)F)C(=O)[C@H](CC(=O)N1CCC(c3cc4ccccc4[nH]c3=O)CC1)C2 [Example 102, (S)-4-methyl-7-(2-oxo-2-(4-(2-oxo-1,2-dihydroquinolin-3-yl)piperidin-1-yl)ethyl)-9-(2,2,2-trifluoroethyl)-6,7,9,10-tetrahydroazepino[3,4-e]indazol-8(3H)-one]
> 1	CC(C)(C)CN1Cc2c(cc(Cl)c3[nH]ncc23)C[C@@H](CC(=O)N2CCC(c3cc4ccc(F)nc4[nH]c3=O)CC2)C1=O [Example 119]
> 1	CC(C)(C)CN1Cc2c(cc(Cl)c3[nH]ncc23)C[C@@H](CC(=O)N2CCC(c3cc4ccccc4cc3O)CC2)C1=O [Example 74, 1-[[7-(S)-4-choro-9-(2,2-Dimethylpropyl)-3,6,7,8,9,10-hexahydro-8-oxoazepino[3,4-e]indazol-7-yl]acetyl]-4-(3-hydroxy-2-naphthalenyl)piperidine]
0.1 to 1	CC(C)(C)CN1Cc2c(cc(Cl)c3[nH]ncc23)C[C@@H](CC(=O)N2CCC(c3cc4cccc(Cl)c4[nH]c3=O)CC2)C1=O [Example 117]
0.0001 to 0.01	O=C(C[C@@H]1Cc2cc(Cl)c3[nH]ncc3c2CN(Cc2ccncc2)C1=O)N1CCC(c2cc3ccccc3c[n+]2[O-])CC1 [Example 82]
> 1	CN1Cc2cc(OCc3ccccc3)ccc2CC(NC(=O)N2CCC(N3Cc4ccccc4NC3=O)CC2)C1=O (stereo not drawn) [Example 31, 4-(2-Oxo-1,4-dihydro-2H-quinazolin-3-yl)-piperidine-1-carboxylic acid (8-benzyloxy-2-methyl-3-oxo-2,3,4,5-tetrahydro-1H-benzo[c]azepin-4-yl)-amide]
0.01 to 0.1	CC(C)N1Cc2c(ccc3[nH]ncc23)C[C@@H](NC(=O)N2CCC(N3Cc4ccccc4NC3=O)CC2)C1=O [Example 15, 4-(2-Oxo-1,4-dihydro-2H-quinazolin-3-yl)-piperidine-1-carboxylic acid (9-isopropyl-8-oxo-3,6,7,8,9,10-hexahydro-2,3,9-triaza-(R)-cyclohepta[e]inden-7-yl)-amide]
0.0001 to 0.01	Cc1cc2c(c3cn[nH]c13)CN(CC(C)(C)C)C(=O)[C@H](CC(=O)N1CCC(c3cc4ccccc4[nH]c3=O)CC1)C2 [Example 100, (S)-4-methyl-9-neopentyl-7-(2-oxo-2-(4-(2-oxo-1,2-dihydroquinolin-3-yl)piperidin-1-yl)ethyl)-6,7,9,10-tetrahydroazepino[3,4-e]indazol-8(3H)-one]
0.1 to 1	O=C(N[C@@H]1Cc2ccc3[nH]ncc3c2CN(CCN2CCCCC2)C1=O)N1CCC(N2Cc3ccccc3NC2=O)CC1 [Example 3, 4-(2-Oxo-1,4-dihydro-2H-quinazolin-3-yl)-piperidine-1-carboxylic acid [8-oxo-9-(2-piperidin-1-yl-ethyl)-3,6,7,8,9,10-hexahydro-2,3,9-triaza-(R)-cyclohepta[e]inden-7-yl]-amide]
> 1	CC(C)(C)CN1Cc2c(ccc3[nH]ncc23)C[C@@H](CC(=O)N2CCC(c3cnc4ccccc4c3)CC2)C1=O [Example 72, 1-[[7-(S)-9-(2,2-Dimethylpropyl)-3,6,7,8,9,10-hexahydro-8-oxoazepino[3,4-e]indazol-7-yl]acetyl]-4-(3-quinolinyl)piperidine]
0.1 to 1	CC(C)(C)CN1Cc2c(ccc3[nH]ncc23)C[C@@H](NC(=O)N2CCN(C3Cc4ccccc4NC3=O)CC2)C1=O (stereo partly drawn) [Example 68, N-((R)-9-Neopentyl-8-oxo-3,6,7,8,9,10-hexahydroazepino[3,4-e]indazol-7-yl)-4-(2-oxo-1,2,3,4-tetrahydroquinolin-3-yl)piperazine-1-carboxamide]
0.1 to 1	CN1Cc2c(cc(Br)c(O)c2Br)CC(NC(=O)N2CCC(N3Cc4ccccc4NC3=O)CC2)C1=O (stereo not drawn) [Example 34, 4-(2-Oxo-1,4-dihydro-2H-quinazolin-3-yl)-piperidine-1-carboxylic acid (7,9-dibromo-8-hydroxy-2-methyl-3-oxo-2,3,4,5-tetrahydro-1H-benzo[c]azepin-4-yl)-amide]
0.1 to 1	CC(C)(C)CN1Cc2c(cc(Cl)c3[nH]ncc23)C[C@@H](CC(=O)N2CCC(c3ccc(Cl)cc3Cl)CC2)C1=O [Example 93, (S)-4-chloro-7-(2-(4-(2,4-dichlorophenyl)piperidin-1-yl)-2-oxoethyl)-9-neopentyl-6,7,9,10-tetrahydroazepino[3,4-e]indazol-8(3H)-one]
0.0001 to 0.01	O=C(C[C@@H]1Cc2cc(Cl)c3[nH]ncc3c2CN(CC(F)(F)F)C1=O)N1CCC(c2cc3cccnc3[nH]c2=O)CC1 [Example 89, (S)-4-chloro-7-(2-oxo-2-(4-(2-oxo-1,2-dihydro-1,8-naphthyridin-3-yl)piperidin-1-yl)ethyl)-9-(2,2,2-trifluoroethyl)-6,7,9,10-tetrahydroazepino[3,4-e]indazol-8(3H)-one]
